Several values for one entry are separate records, joined by “and”; a condition that tells them apart may be missing. Identical values can stand only once.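 Tested at 5 concentrations; 48 h exposure; 96-well plates; endpoints linearly interpolated, else capped at highest concentration. GI50 = concentration required for 50% inhibition of growth.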 Activity calls are given as the source filed them. Cut-off read from the data, not from the text of the source: active = GI50 up to about 1.1 µM and inactive = higher.
How the values were obtained:
Experiment in all cases: growth of human tumour cells (NCI), 48 h
[1] = system: 786-0
[2] = system: A498
[3] = system: A549
[4] = system: ACHN
[5] = system: BT-549
[6] = system: CAKI-1
[7] = system: CCRF-CEM
[8] = system: COLO 205
[9] = system: DU-145
[10] = system: EKVX
[11] = system: HCC 2998
[12] = system: HCT-116
[13] = system: HCT-15
[14] = system: HL-60
[15] = system: HOP-62
[16] = system: HOP-92
[17] = system: HT-29
[18] = system: Hs-578T
[19] = system: IGROV-1
[20] = system: K562
[21] = system: KM12
[22] = system: LOX IMVI
[23] = system: M14
[24] = system: MCF7
[25] = system: MDA-MB-231
[26] = system: MDA-MB-435
[27] = system: MOLT-4
[28] = system: Malme-3M
[29] = system: NCI-H226
[30] = system: NCI-H23
[31] = system: NCI-H460
[32] = system: NCI-H522
[33] = system: NCI/ADR-RES
[34] = system: OVCAR-3
[35] = system: OVCAR-4
[36] = system: OVCAR-5
[37] = system: OVCAR-8
[38] = system: PC-3
[39] = system: RPMI-8226
[40] = system: RXF 393
[41] = system: SF-268
[42] = system: SF-295
[43] = system: SF-539
[44] = system: SK-MEL-28
[45] = system: SK-MEL-2
[46] = system: SK-MEL-5
[47] = system: SK-OV-3
[48] = system: SN12C
[49] = system: SNB-19
[50] = system: SNB-75
[51] = system: SR
[52] = system: SW-620
[53] = system: T47D
[54] = system: TK-10
[55] = system: U-251
[56] = system: UACC-257
[57] = system: UACC-62
[58] = system: UO-31
[59] = system: MDA-N

Measured: GI50

CC1(C)CC(=O)C2=C(C1)OC1(CC2c2ccc(Cl)cc2)CC(c2ccc(Cl)cc2)C2=C(CC(C)(C)CC2=O)O1 (centres undefined)
inactive: [1] 15.7 µM | [2] 16 µM | [3] 13.6 µM | [4] 18.5 µM | [5] 20.7 µM | [6] 26.9 µM | [7] 15.5 µM | [8] 16 µM | [9] 19.6 µM | [10] 16.1 µM | [11] 16.3 µM | [12] 12.2 µM | [14] 3.58 µM | [15] 15.6 µM | [16] 3.52 µM | [17] 28.2 µM | [18] 16.5 µM | [19] 12.5 µM | [20] 8.18 µM | [21] 16.7 µM | [22] 20.4 µM | [23] 23.1 µM | [24] 12 µM | [25] 24.4 µM | [26] 8.53 µM | [27] 3.13 µM | [28] 15.3 µM | [29] 22.4 µM | [30] 16.3 µM | [31] 14.3 µM | [32] 11.3 µM | [33] > 38.5 µM | [34] 3.44 µM | [35] 6.78 µM | [36] 26.9 µM | [37] 24.7 µM | [38] 18.2 µM | [39] 9.46 µM | [40] 26.1 µM | [41] 17.9 µM | [42] 22.2 µM | [43] 20.5 µM | [44] 15.2 µM | [45] 18.8 µM | [46] 14.8 µM | [47] 12.1 µM | [48] 36.7 µM | [49] 18.8 µM | [50] 17.5 µM | [51] 4.83 µM | [52] 20.7 µM | [53] > 10 µM | [54] 32.4 µM | [55] 22.5 µM | [56] 17 µM | [57] 23.6 µM | [58] 13.6 µM
9.62 µM: [13]

Nc1ncnc2c1nnn2C1CCC(CP(=O)(O)O)C1 (centres undefined)
> 100 µM: [13]
inactive: [1] > 100 µM | [3] > 100 µM | [4] > 100 µM | [6] > 100 µM | [7] > 100 µM | [8] > 100 µM | [9] > 100 µM | [10] > 100 µM | [11] > 100 µM | [12] > 100 µM | [14] > 100 µM | [15] > 100 µM | [16] > 100 µM | [17] > 100 µM | [19] > 100 µM | [20] > 100 µM | [21] > 100 µM | [22] > 100 µM | [23] > 100 µM | [24] > 100 µM | [25] > 100 µM | [26] > 100 µM | [59] > 100 µM | [27] > 100 µM | [28] > 100 µM | [29] > 100 µM | [30] > 100 µM | [31] > 100 µM | [33] > 100 µM | [34] > 100 µM | [35] > 100 µM | [36] > 100 µM | [37] > 100 µM | [38] > 100 µM | [39] > 100 µM | [40] > 100 µM | [41] > 100 µM | [42] > 100 µM | [43] > 100 µM | [44] > 100 µM | [45] > 100 µM | [46] > 100 µM | [47] > 100 µM | [48] > 100 µM | [49] > 100 µM | [50] > 100 µM | [51] > 100 µM | [52] > 100 µM | [53] > 100 µM | [54] > 100 µM | [55] > 100 µM | [56] > 100 µM | [57] > 100 µM | [58] > 100 µM

COC(=O)CCC(C)[C@H]1CCC2C3C(C[C@H](OC(C)=O)[C@@]21C)[C@@]1(C)CCC2(C[C@H]1C[C@H]3OC(C)=O)OOC1(CCC(C)CC1)OO2 (some centres undefined)
inactive: [2] > 100 µM | [4] 10.1 µM and 6.9 µM | [7] 6.38 µM and 4.59 µM | [11] 51.3 µM | [12] 5.41 µM and 2.77 µM | [17] 50.5 µM and 55.7 µM | [22] 7.8 µM and 5.15 µM | [23] 32.4 µM and 18.2 µM | [25] 14 µM and 20.2 µM | [59] 27.4 µM and 15.7 µM | [28] 9.51 µM and 17.9 µM | [29] 56.6 µM and 31.8 µM | [33] > 100 µM and 67.9 µM | [34] 7.1 µM and 6.27 µM | [36] > 100 µM | [40] 72.3 µM | [43] > 100 µM and 58.6 µM | [44] > 100 µM | [46] 15.7 µM and 9.79 µM | [47] > 100 µM | [48] 34 µM and 33.4 µM | [49] 75 µM | [51] 4.55 µM and 2.46 µM | [53] 10.5 µM | [55] 9.16 µM and 5.16 µM
active: [57] < 0.01 µM

Source: ChEMBL document CHEMBL1201862, “PubChem BioAssay data set” (2004)
